Reference: publication PMC9312206, “Atto488-Agitoxin 2—A Fluorescent Ligand with Increased Selectivity for Kv1.3 Channel Binding Site” (Bioengineering, 2022)
“Also recorded” adds a separate entry of the source. Where two headings read alike, the source gives them in different places.

Key:
[1] = tested on: KcsA–Kv1.3 (Kv1.3 binding site); experiment: Competitive binding: displacement of A-AgTx2 from KcsA–Kv1.3 on E. coli spheroplasts; settings: 1 h at 37 °C, pH 8.0; for displacement of A-AgTx2 from complexes with KcsA–Kv1.3 by peptide blockers (in words): tested AgTx2 0.4–50 nM, KTx1 0.04–2.5 nM, ChTx 10 nM, averaged over 3 independent experiments; for Kd: competition with A-AgTx2 10 nM, Kap = IC50/(1 + [L]/[Kd]), mean ± SEM, three independent measurements, read-out: apparent dissociation constant (Kap)
Description: (§1) E. coli spheroplasts expressing KcsA or chimeric KcsA–Kv1.x (x = 1, 3, 6) channels were prepared according to the previously developed protocol. Briefly, E. coli BL21 (DE3) cells (Novagen, Merck, Darmstadt, Germany), transformed either with the pET28a-KcsA, the pET28a-KcsA–Kv1.1, or the pET28a-KcsA–Kv1.3 plasmid, were cultivated in a minimal M9 medium at 37 °C up to OD560 = 0.8 optical units per cm (o.u./cm), induced with 50 μM isopropyl β-D-1-thiogalactopyranoside, and further grown at 37 °C for 20 h. The cells transformed with pET28a-KcsA–Kv1.6 were grown at 25 °C for 28 h after induction. To prepare the spheroplasts, cells were harvested by centrifugation (5000× g, 10 min, 4 °C), incubated in buffer A (10 mM Tris–HCl, pH 8.0, 0.5 M sucrose) containing lysozyme (20 μg/mL) for 7 min on ice, then diluted twofold with buffer B (10 mM Tris–HCl, pH 8.0, 0.3 mM ethylenediamine tetraacetic acid) and further incubated for 20 min. Finally, the spheroplasts (OD560 ≈ 0.5 o.u./cm) were stabilized by the addition of MgCl2 (10 mM) and stored at 4 °C.
(§2) All the experiments were performed in a buffer containing 50 mM Tris-HCl (pH 8.0), 4 mM KCl, 50 mM NaCl, 10 mM MgCl2, 0.3 mM EDTA, 250 mM sucrose, and 0.1% bovine serum albumin. In the binding experiments, the spheroplasts (1000 cells/μL) were incubated with different concentrations of A-AgTx2 (0.16–20 or 100 nM) or AgTx2-GFP (4 or 50 nM) for 1 h at 37 °C. In the competitive binding experiments, the spheroplasts were incubated with A-AgTx2 (10 nM) and with one of the following compounds for 1 h at 37 °C: AgTx2 (0.4–50 nM), KTx1 (0.04–2.5 nM), ChTx (10 nM), ScyTx (5 µM), tetraethylammonium (TEA, 10 mM).
(§3) After incubation with ligands, the spheroplasts were placed in a 12-well flexiPERM silicon chamber (Perbio, Aalst, Belgium) attached to a thin (0.15 mm) cover glass and were centrifuged at 200× g for 5 min to immobilize the spheroplasts to a cover glass. The microscopy studies were carried out with a laser scanning confocal microscope LSM 710 (Zeiss, Oberkochen, Germany) using the α Plan-Apochromat 100×/1.46 oil immersion objective. Fluorescence of A-AgTx2 and AgTx2-GFP was excited at the 488 nm wavelength and recorded in the 495–590 nm range, at a 0.25 μm lateral and ca. 1.5 μm axial resolution. Image J software (National Institutes of Health, Bethesda, MD, USA) was used to treat the images and define the fluorescence intensity of the ligand bound to each measured spheroplast and the average fluorescence intensity Ia of the bound fluorescent ligand (mean ± SEM, n = 130–230 cells per point).
The apparent dissociation constant (Kap) of non-labeled ligands (AgTx2, KTx1) was calculated using the data of competition binding experiments according to the procedure described elsewhere with the following equation: Kap = IC50/(1 + [L]/[Kd])(2) where [L] is a concentration of A-AgTx2 (10 nM), IC50 is the concentration of a non-labeled ligand that displaces 50% of A-AgTx2 from the complex with KcsA–Kv1.3. Kap was introduced instead of Kd to emphasize an indirect method (the competitive binding experiment) for its determination.
(§4) The Kd and Kap values from three independent measurements were averaged and presented as mean ± SEM.

[2] = tested on: KCa2.3 channel; settings: ref [18]; cited from earlier work
[3] = tested on: KCa2.2 channel; settings: ref [18]; cited from earlier work
[4] = tested on: Kv1.3 channel; settings: cited from earlier work
Source text: High-affinity and genetically ... || Interactions of A-AgTx2 with the Kv1.3 binding site were further characterized using known small organic molecule (TEA) and peptide blockers (ChTx, KTx1, AgTx2) of the Kv1.3 channel.

[5] = tested on: KCa2.1 channel; settings: ref [18]; cited from earlier work
[6] = tested on: Shaker K^+ channel; settings: ref [1]; cited from earlier work
Source text: The toxin contains a triple-stranded antiparallel β-sheet with two outer strands—S1 (Val2-Cys8) and S2 (Arg24-Met29)—and the central strand S3 (Lys32—Thr ...

[7] = tested on: Kv1.6 channel; settings: cited from earlier work
Source text: (§5) Differences between two labeled derivatives include the position of a label (carboxytetramehylrhodamine was located at the C-terminus of AgTx2 [11]), the number of charges, and the total charge at the labels. Atto488 bears two negatively and one positively charged groups (Figure 1C), while carboxytetramehylrhodamine bears one negative charge and one positive charge. It can be s ... || (+ 1 further places)

[8] = tested on: Kv1.1 channel; settings: cited from earlier work
Source text: as §5

[9] = molecular target: Kv1.3 channel; settings: read-out: Kd, electrophysiological studies, cited from earlier work
[10] = molecular target: KcsA–Kv1.3; settings: estimated previously; ref [15]; read-out: apparent dissociation constant, KcsA–Kv1.3-bearing spheroplasts and GFP-tagged AgTx2 ligand; cited from earlier work
Description: Since the bioengineering system based on KcsA–Kv1.3-bearing spheroplasts is suitable for the quantitative analysis of the affinity of unlabeled pore blockers by measuring the competitive binding of the fluorescent ligand and the compound under study, we tested A-AgTx2 in such an analysis (Figure 4C). […] The concentrations of AgTx2 and KTx1 displacing 50% of A-AgTx2, which were determined from the measured dependences, made it possible to calculate the apparent dis ...

[11] = tested on: KcsA; experiment: Direct binding of fluorescent ligand to control spheroplasts expressing KcsA; settings: A-AgTx2 100 nM
Description: (§6) E. coli spheroplasts expressing KcsA or chimeric KcsA–Kv1.x (x = 1, 3, 6) channels were prepared according to the previously developed protocol. Briefly, E. coli BL21 (DE3) cells (Novagen, Merck, Darmstadt, Germany), transformed either with the pET28a-KcsA, the pET28a-KcsA–Kv1.1, or the pET28a-KcsA–Kv1.3 plasmid, were cultivated in a minimal M9 medium at 37 °C up to OD560 = 0.8 optical units per cm (o.u./cm), induced with 50 μM isopropyl β-D-1-thiogalactopyranoside, and further grown at 37 °C for 20 h. The cells transformed with pET28a-KcsA–Kv1.6 were grown at 25 °C for 28 h after induction. […]
as §3, with “The microscopy studies were carried out with a laser scanning confocal microscope LSM 710 (Zeiss, Oberkochen, Germany) using the α Plan-Apochromat 100×/1.46 oil immersion objective.” left out

[12] = tested on: KcsA–Kv1.1 (Kv1.1 binding site); experiment: Direct binding of fluorescent ligand to hybrid KcsA–Kv1.1 on E. coli spheroplasts, confocal microscopy; settings: A-AgTx2 100 nM, 1 h at 37 °C, pH 8.0
Description: as §6
as §3, with “The microscopy studies were carried out with a laser scanning confocal microscope LSM 710 (Zeiss, Oberkochen, Germany) using the α Plan-Apochromat 100×/1.46 oil immersion objective.” left out

[13] = tested on: spheroplasts prepared from non-transformed cells; experiment: Direct binding of fluorescent ligand to control spheroplasts from non-transformed cells (plasma membrane); parameters: species or system E. coli BL21 (DE3); settings: A-AgTx2 100 nM
Description: as §6
as §3, with “The microscopy studies were carried out with a laser scanning confocal microscope LSM 710 (Zeiss, Oberkochen, Germany) using the α Plan-Apochromat 100×/1.46 oil immersion objective.” left out

[14] = tested on: KcsA–Kv1.3 (Kv1.3 binding site); experiment: Direct binding of fluorescent ligand to hybrid KcsA–Kv1.3 on E. coli spheroplasts, confocal microscopy
Description: as §1, with “°C. To obtain spheroplasts from non-transformed cells, E. coli BL21 (DE3) cells were subjected to similar growth, induction, and treatment procedures.” for “°C.”
as §2, §3
The dissociation constants (Kd) of complexes between A-AgTx2 and KcsA–Kv1.3 were defined by fitting the experimental dependencies of Ia onto the concentration L of A-AgTx2 with the following equation:Ia ([L]) = Ias [L]/(Kd + [L])(1) where Ias is the Ia value when the A-AgTx2 binding is saturated.
as §4

[15] = tested on: KcsA–Kv1.6 (Kv1.6 binding site); experiment: Direct binding of fluorescent ligand to hybrid KcsA–Kv1.6 on E. coli spheroplasts, confocal microscopy; settings: A-AgTx2 100 nM, 1 h at 37 °C, pH 8.0
Description: as §6
as §3, with “The microscopy studies were carried out with a laser scanning confocal microscope LSM 710 (Zeiss, Oberkochen, Germany) using the α Plan-Apochromat 100×/1.46 oil immersion objective.” left out

Compound: scyllatoxin (AFCNLRMCQLSCRSLGLLGKCIGDKCECVKH; UniProt P16341 1-31, looked up) [ScyTx]
- displacement of A-AgTx2 from complexes with KcsA–Kv1.3 by control peptide (in words) ([1]; A-AgTx2 10 nM, ScyTx 5 µM): did not disturb the complexes of A-AgTx2 with KcsA–Kv1.3
- block of KCa2.3 (in words) [2]: blocks the KCa2.1, KCa2.2, and KCa2.3 channels
- block of KCa2.2 (in words) [3]: blocks the KCa2.1, KCa2.2, and KCa2.3 channels
- interaction with Kv1.3 (in words) ([4]; stated as known, ref [18]): does not interact with Kv1.3
- block of KCa2.1 (in words) [5]: blocks the KCa2.1, KCa2.2, and KCa2.3 channels

Compound: agitoxin 2 [AgTx2]
- displacement of A-AgTx2 from complexes with KcsA–Kv1.3 by peptide blockers (in words) ([1]; A-AgTx2 10 nM): displaced A-AgTx2 from the complexes with KcsA–Kv1.3 at nanomolar concentrations
- Kd [1]: 0.54 ± 0.11 nM
- inhibition of Kv1.3 (in words) ([4]; mammalian channel, ref [1]): high-affinity inhibitor
- inhibition of Shaker K^+ channel (in words) [6]: high-affinity inhibitor
- inhibition of Kv1.6 (in words) ([7]; mammalian channel, ref [1]): high-affinity inhibitor
- inhibition of Kv1.1 (in words) ([8]; mammalian channel, ref [1]): high-affinity inhibitor
- Kd ([9]; ref [19]): 2 nM
- Kd [10]: 0.23 nM

Compound: Atto488-agitoxin 2 [A-AgTx2]
- non-specific ligand binding to the KcsA channel scaffold (in words) [11]: very low
- binding of A-AgTx2 to KcsA–Kv1.1 / Kv1.1 binding site (in words) [12]: lose affinity for the Kv1.1 and Kv1.6 binding sites; also recorded: does not stain spheroplasts presenting KcsA–Kv1.1 or KcsA–Kv1.6; also recorded: inability of A-AgTx2 to interact with the Kv1.1 and Kv1.6 binding sites
- non-specific ligand binding to plasma membrane (in words) [13]: very low
- affinity for the Kv1.3 binding site compared to the unlabeled AgTx2 (in words) [14]: decreased as compared to the unlabeled AgTx2
- binding of A-AgTx2 to spheroplasts expressing KcsA–Kv1.3 (in words) ([14]; A-AgTx2 20 nM, 1 h at 37 °C, pH 8.0): effectively binds to spheroplasts expressing KcsA–Kv1.3
- Kd ([14]; A-AgTx2 0.16–20 nM, 1 h at 37 °C, pH 8.0, 4 mM KCl, 50 mM NaCl, 0.1% BSA, mean ± SEM, n = 3, read-out: dissociation constant (Kd) of complexes with KcsA–Kv1.3): 3.9 ± 0.2 nM
- intensity of fluorescence detected from KcsA–Kv1.3-bearing spheroplasts relative to control spheroplasts (higher than) ([14]; A-AgTx2, control: spheroplasts expressing KcsA or not expressing heterologous channels, difference preserved with controls at fivefold higher A-AgTx2 concentration): fifty
- selectivity toward Kv1.3 as compared to the Kv1.1 and Kv1.6 binding sites (in words) ([14]; in contrast to non-modified AgTx2): considerably increased selectivity toward Kv1.3
- binding of A-AgTx2 to KcsA–Kv1.6 / Kv1.6 binding site (in words) [15]: lose affinity for the Kv1.1 and Kv1.6 binding sites; also recorded: does not stain spheroplasts presenting KcsA–Kv1.1 or KcsA–Kv1.6; also recorded: inability of A-AgTx2 to interact with the Kv1.1 and Kv1.6 binding sites

Compound: kaliotoxin-1 [KTx1]
- displacement of A-AgTx2 from complexes with KcsA–Kv1.3 by peptide blockers (in words) ([1]; A-AgTx2 10 nM): displaced A-AgTx2 from the complexes with KcsA–Kv1.3 at nanomolar concentrations
- Kd [1]: 0.06 ± 0.02 nM
- Kd ([9]; ref [20]): 0.1 nM
- Kd [10]: 0.1 nM

Compound: charybdotoxin [ChTx]
- displacement of A-AgTx2 from complexes with KcsA–Kv1.3 by peptide blockers (in words) ([1]; A-AgTx2 10 nM): displaced A-AgTx2 from the complexes with KcsA–Kv1.3 at nanomolar concentrations

Compound: CC[N+](CC)(CC)CC [TEA, tetraethylammonium]
- displacement of A-AgTx2 from complexes with KcsA–Kv1.3 by TEA (in words) ([1]; A-AgTx2 10 nM, TEA 10 mM): accomplished this at millimolar concentrations

Compound: R-AgTx2: AgTx2 labeled with carboxytetramethylrhodamine at Lys38
- affinity for Kv1.3 binding site (in words) ([4]; ref [11],[12],[13]): nanomolar affinity
- affinity for Kv1.6 binding site (in words) ([7]; ref [11],[12],[13]): nanomolar affinity
- affinity for Kv1.1 binding site (in words) ([8]; ref [11],[12],[13]): nanomolar affinity
